What all share (type): cell-based
The test system of assay [1] is Mycobacterium tuberculosis ATCC 35837. In words: Method of the proportions, Table 3 entry 1.
For assay [2], the system named is Mycobacterium avium-intracellulare complex 5 strains assayed. In words: Method of the proportions, Table 3 entry 11. As to conditions: for MIC: Mycobacterium avium-intracellulare, five strains, all resistant.
For assay [3], the system named is Mycobacterium tuberculosis 38 strains assayed. The assay is described as follows: Method of the proportions, Table 3 entry 6.
For assay [4], the system named is Mycobacterium tuberculosis ATCC 35820. The assay is described as follows: Method of the proportions, Table 3 entry 2.
Assay [5] concerns Mycobacterium tuberculosis 2 strains assayed. In words: Method of the proportions, Table 3 entry 8.
For assay [6], the system named is Mycobacterium tuberculosis 3 strains assayed. In words: Method of the proportions, Table 3 entry 9.
Assay [7] relates to Mycobacterium tuberculosis ATCC 35822. In words: Method of the proportions, Table 3 entry 4.
Assay [8] deals with Mycobacterium Kansasii 4 strains assayed. The assay is described as follows: Method of the proportions, Table 3 entry 12.
The subject of assay [9] is Mycobacterium tuberculosis 8 strains assayed. In words: Method of the proportions, Table 3 entry 7.
Assay [10] has as its system Mycobacterium tuberculosis H37 RV. In words: Method of the proportions, Table 3 entry 5.
Assay [11] has as its system Mycobacterium tuberculosis ATCC 35838. The assay is described as follows: Method of the proportions, Table 3 entry 3.
Assay [12] has as its system Mycobacterium tuberculosis 1 strain assayed. In words: Method of the proportions, Table 3 entry 10.
The mark [13] stands for this setting: concentration analysed 0.2 μg/ml.
Setting [14] is: concentration analysed 25 μg/ml.

The values below come from US7521458B2, “Spiropiperidylrifamycins for the treatment of mycobacterial infections” (priority 2004, dated 2009).

Regarding “4-deoxo-3,4-[(2R)-2-spiro[2,6-bis(4-methoxiphenyl)-4-piperidyl]-2,5-dihydro-1H-imidazo]rifamycin S [RFA 4M]”, the “Sensitivity of strain (s/R)” value in [1] (concentration analysed 1 μg/ml), in assay [4] (concentration analysed 1 μg/ml), in assay [7] (concentration analysed 1 μg/ml), in assay [10] (concentration analysed 1 μg/ml), in [11] (concentration analysed 1 μg/ml) and in assay [12] (concentration analysed 1 μg/ml) was “s (s means sensitive)” each time. Moreover, the “Sensitivity of strains (s/R)” value in assay [2] (concentration analysed 1 μg/ml) is recorded as “s/R”; in assay [3] (concentration analysed 1 μg/ml), “s (s means sensitive)”; in assay [5] (concentration analysed 1 μg/ml), “s (s means sensitive)”; in assay [6] (concentration analysed 1 μg/ml) it was “s (s means sensitive)”; in [8] (concentration analysed 1 μg/ml), “s (s means sensitive)”; in [9] (concentration analysed 1 μg/ml), “s (s means sensitive)”.

`CC[C@@H](CO)NCCN[C@@H](CC)CO` [EB, ethambutol]: the “Sensitivity of strain (s/R)” value in assay [1] (concentration analysed 5 μg/ml) is reported as “s (s means sensitive)”; in assay [4] (concentration analysed 5 μg/ml), “s (s means sensitive)”; in [7] (concentration analysed 5 μg/ml) it was “s (s means sensitive)”; in assay [10] (concentration analysed 5 μg/ml), “s (s means sensitive)”; in assay [11] (concentration analysed 5 μg/ml) it was “R (R means resistent)”; in assay [12] (concentration analysed 5 μg/ml) it was “s (s means sensitive)”. For the same molecule, the “Sensitivity of strains (s/R)” value in assay [2] (concentration analysed 5 μg/ml) is “R (R means resistent)”; in assay [3] (concentration analysed 5 μg/ml), “s (s means sensitive)”; in [5] (concentration analysed 5 μg/ml), “s (s means sensitive)”; in assay [6] (concentration analysed 5 μg/ml) it was “s (s means sensitive)”; in assay [8] (concentration analysed 5 μg/ml) it was “R (R means resistent)”; in [9] (concentration analysed 5 μg/ml), “s (s means sensitive)”.

In the case of `NNC(=O)c1ccncc1` [IZ, isoniazid], the “Sensitivity of strain (s/R)” value in assay [1] (setting [13]) is listed as “s (s means sensitive)”; in [4] (setting [13]), “s (s means sensitive)”; in assay [7] (setting [13]), “R (R means resistent)”; in assay [10] (setting [13]), “s (s means sensitive)”; in assay [11] (setting [13]), “s (s means sensitive)”; in assay [12] (setting [13]) it was “R (R means resistent)”. In addition, the “Sensitivity of strains (s/R)” value in [2] (setting [13]) is listed as “R (R means resistent)”; in assay [3] (setting [13]) it was “s (s means sensitive)”; in [5] (setting [13]), “R (R means resistent)”; in assay [6] (setting [13]) it was “s (s means sensitive)”; in assay [8] (setting [13]), “R (R means resistent)”; in assay [9] (setting [13]) it was “s (s means sensitive)”.

Turning to `NC(=O)c1cnccn1` [PZ, pyrazinamide], the “Sensitivity of strain (s/R)” value in [1] (setting [14]), in assay [4] (setting [14]), in assay [7] (setting [14]), in [10] (setting [14]), in assay [11] (setting [14]) and in assay [12] (setting [14]) was “s (s means sensitive)” throughout. The “Sensitivity of strains (s/R)” value in assay [2] (setting [14]) was “R (R means resistent)”; in [3] (setting [14]), “s (s means sensitive)”; in assay [5] (setting [14]), “s (s means sensitive)”; in [6] (setting [14]) it was “s (s means sensitive)”; in assay [8] (setting [14]) it was “R (R means resistent)”; in [9] (setting [14]) it was “R (R means resistent)”.

By MIC is commonly meant the lowest concentration that inhibits growth of the organism. A higher MIC goes with a need for much substance. As for `CO[C@H]1/C=C/O[C@@]2(C)Oc3c(C)c(O)c4c(c3C2=O)C2=NC3(CCN(CC(C)C)CC3)NC2=C(NC(=O)/C(C)=C\C=C\[C@H](C)[C@H](O)[C@@H](C)[C@@H](O)[C@@H](C)[C@H](OC(C)=O)[C@@H]1C)C4=O` [RFB, rifabutin], the “Sensitivity of strain (s/R)” value is given as “R (R means resistent)” in [1] (concentration analysed 1 μg/ml); “s (s means sensitive)” in assay [4] (concentration analysed 1 μg/ml); “s (s means sensitive)” in [7] (concentration analysed 1 μg/ml); “s (s means sensitive)” in assay [10] (concentration analysed 1 μg/ml); “s (s means sensitive)” in assay [11] (concentration analysed 1 μg/ml); “s (s means sensitive)” in assay [12] (concentration analysed 1 μg/ml). The molecule also had an MIC in [2] greater than 1 µg/mL. The “Sensitivity of strains (s/R)” value is “R (R means resistent)” in assay [2] (concentration analysed 1 μg/ml); “s (s means sensitive)” in assay [3] (concentration analysed 1 μg/ml); “s (s means sensitive)” in [5] (concentration analysed 1 μg/ml); “s (s means sensitive)” in assay [6] (concentration analysed 1 μg/ml); “s (s means sensitive)” in assay [8] (concentration analysed 1 μg/ml); “s (s means sensitive)” in assay [9] (concentration analysed 1 μg/ml).

As to `CO[C@H]1/C=C/O[C@@]2(C)Oc3c(C)c(O)c4c(O)c(c(/C=N/N5CCN(C)CC5)c(O)c4c3C2=O)NC(=O)/C(C)=C\C=C\[C@H](C)[C@H](O)[C@@H](C)[C@@H](O)[C@@H](C)[C@H](OC(C)=O)[C@@H]1C` [RI, rifampicin], the “Sensitivity of strain (s/R)” value in [1] (concentration analysed 1 μg/ml) is recorded as “R (R means resistent)”; in assay [4] (concentration analysed 1 μg/ml), “s (s means sensitive)”; in assay [7] (concentration analysed 1 μg/ml), “s (s means sensitive)”; in assay [10] (concentration analysed 1 μg/ml), “s (s means sensitive)”; in assay [11] (concentration analysed 1 μg/ml), “s (s means sensitive)”; in [12] (concentration analysed 1 μg/ml), “s (s means sensitive)”. The same molecule registered an MIC in assay [2] greater than 1 µg/mL. Besides, the “Sensitivity of strains (s/R)” value was “R (R means resistent)” in assay [2] (concentration analysed 1 μg/ml); “s (s means sensitive)” in assay [3] (concentration analysed 1 μg/ml); “s (s means sensitive)” in [5] (concentration analysed 1 μg/ml); “s (s means sensitive)” in assay [6] (concentration analysed 1 μg/ml); “s (s means sensitive)” in [8] (concentration analysed 1 μg/ml); “s (s means sensitive)” in assay [9] (concentration analysed 1 μg/ml).

Take `CN[C@@H]1[C@H](O[C@H]2[C@H](O[C@H]3[C@H](O)[C@@H](O)[C@H](N=C(N)N)[C@@H](O)[C@@H]3N=C(N)N)O[C@@H](C)[C@]2(O)C=O)O[C@@H](CO)[C@H](O)[C@H]1O` [SM]: the “Sensitivity of strain (s/R)” value in [1] (concentration analysed 4 μg/ml) is “s (s means sensitive)”; in [4] (concentration analysed 4 μg/ml), “R (R means resistent)”; in assay [7] (concentration analysed 4 μg/ml) it was “s (s means sensitive)”; in assay [10] (concentration analysed 4 μg/ml) it was “s (s means sensitive)”; in [11] (concentration analysed 4 μg/ml), “s (s means sensitive)”; in assay [12] (concentration analysed 4 μg/ml) it was “R (R means resistent)”. The “Sensitivity of strains (s/R)” value in assay [2] (concentration analysed 4 μg/ml) is listed as “s/R”; in [3] (concentration analysed 4 μg/ml), “s (s means sensitive)”; in assay [5] (concentration analysed 4 μg/ml), “s (s means sensitive)”; in assay [6] (concentration analysed 4 μg/ml) it was “R (R means resistent)”; in assay [8] (concentration analysed 4 μg/ml) it was “R (R means resistent)”; in assay [9] (concentration analysed 4 μg/ml), “s (s means sensitive)”.
